Experimental data published in paper PMC5847527, “Identification of a novel 2-oxindole fluorinated derivative as in vivo antitumor agent for prostate cancer acting via AMPK activation” (Scientific Reports, 2018).

How the values were obtained:
Type in all cases: cell-based, human
p21 = p21 level by Western blot in PC-3 and LNCaP cells
Description: Figure 4 Cell Cycle analysis in 8c-treated prostate cancer cells. (A) PC-3 and LNCaP cells were treated with compound 8c for 24 hours and cell cycle analysis was analyzed by flow cytometry using Propidium Iodide (PI). Percentage of cells in subG0, G1, S, and G2/M phases is indicated in the histogram. (B) Levels of Cyclin D1, p-p53, p53, p21 and cleaved Caspase 3 (17 kDa fragment) were determined by Western blot. Upper panel, representative Western blot of two different experiments. β-tubulin (β-Tub) serves as a loading control. […]
Cyclin D1 activity is modulated by several inhibitors such as p21 which negatively regulate cell cycle progression by interacting with cyclin dependent kinases (cdks). […] To further study the role of compound 8c in cell cycle, we determined the expression of p21, p53 and the levels of cleaved caspase 3 in the prostate cells. P53 was only determined in LNCaP cells since PC-3 cells are p53-negative[40].
Cells were lysed in Lysis buffer (50 mM Tris pH 7.4, 0.8 M NaCl, 5 mM MgCl2, 0.1% Triton X-100) containing Protease Inhibitor and Phosphatase inhibitor Cocktails (Roche, Basel, Switzerland). Protein concentrations were measured by BioRad™ protein assay kit (Richmond, CA, USA). […] Films were analyzed by densitometry. […]

Raptor = Raptor phosphorylation on Ser792 by Western blot in PC-3 and LNCaP cells; settings: 25 µM
Description: (§1) To further confirm the compound 8c-induced activation of AMPK, PC-3 and LNCaP cells were incubated with the compound for 1 h and 24 hours in the presence of the AMPK inhibitor Dorsomorphin. […] Accordingly, ACC phosphorylation was increased at 1 h and 24 h and prevented by Dorsomorphin in both cell lines. AMPK inhibits mTORC1 through phosphorylation of Raptor on two well-conserved serine residues (ser722 and ser792) inducing cell-cycle arrest in response to an energy stress. To further support the 8c-induced AMPK activation, we determined Raptor phosphorylation on Ser792 in prostate cells.
Figure 5 AMPK activation by compound 8c in prostate cancer cells. (A) PC-3 and LNCaP cells were treated with vehicle, 25 µM compound 8c, 25 µM compound 8c + 5 μM Dorsomorphin (8c + D) or 5 μM Dorsomorphin (D), for 1 hour or 24 hours and levels of the phosphorylated AMPK (pAMPK), phosphorylated ACC (pACC), phosphorylated Raptor (pRaptor) forms and HIF1α were determined by Western blot. Upper panel, representative Western blot of three different experiments. β-tubulin (β-Tub) serves as a loading control. […] (B) Cell viability monitored by MTT assay in PC-3 and LNCaP cells treated with vehicle, 25 µM and 50 μM compound 8c alone or in the presence of 5 μM Dorsomorphin or transfected with control siRNA (siC) or α1AMPK-selective siRNA (siAMPK). […]

AMPK = assay: Characterization of AMPK activation by Western blot in PC-3 and LNCaP cells (Dorsomorphin, siRNA)
Description: as §1
Figure 5 AMPK activation by compound 8c in prostate cancer cells. (A) PC-3 and LNCaP cells were treated with vehicle, 25 µM compound 8c, 25 µM compound 8c + 5 μM Dorsomorphin (8c + D) or 5 μM Dorsomorphin (D), for 1 hour or 24 hours and levels of the phosphorylated AMPK (pAMPK), phosphorylated ACC (pACC), phosphorylated Raptor (pRaptor) forms and HIF1α were determined by Western blot. Upper panel, representative Western blot of three different experiments. β-tubulin (β-Tub) serves as a loading control. Lower panel, densitometric analyses of bands represented as the mean of the ratio pAMPK/AMPK or pACC/ACC. (B) Cell viability monitored by MTT assay in PC-3 and LNCaP cells treated with vehicle, 25 µM and 50 μM compound 8c alone or in the presence of 5 μM Dorsomorphin or transfected with control siRNA (siC) or α1AMPK-selective siRNA (siAMPK). (C) LNCaP cells were treated with vehicle, 25 µM compound 8c, 25 µM compound 8c + 5 μM Dorsomorphin (8c + D) or 5 μM Dorsomorphin (D), for 24 hours and levels of Androgen Receptor (AR), Prostate specific antigen (PSA) and Prostate specific membrane antigen (PSMA) were determined by Western blot.Values were normalized with the control and represent the mean ± SD of at least three independent experiments. *p < 0.05 and **p < 0.01 compared to control and ^#p < 0.05 and ^##p < 0.01 compared with 8c-treated group by the Student’s t-test.
AMPK is a heterotrimeric protein composed by catalytic (α) and regulatory (β and γ) subunits. In mammals, different isoforms of α, β and γ subunits can associate to produce up to 12 AMPK different combinations. […]
Figure 6 Phosphorylation of AMPK and ACC in prostate cells transfected with selective AMPKα1 or AMPKα2 siRNA. […] Levels of the phosphorylated AMPK (pAMPK), phosphorylated ACC (pACC) and their total forms were determined by Western blot. […]
Cells were lysed in Lysis buffer (50 mM Tris pH 7.4, 0.8 M NaCl, 5 mM MgCl2, 0.1% Triton X-100) containing Protease Inhibitor and Phosphatase inhibitor Cocktails (Roche, Basel, Switzerland). Protein concentrations were measured by BioRad™ protein assay kit (Richmond, CA, USA). […]

O=C1Nc2ccccc2C1(F)Cc1ccc(-c2ccccc2)o1 (centres unmarked) [Compound 8c, 3-fluoro-3-((5-phenylfuran-2-yl)methyl)indolin-2-one]
p21 protein level (p21): remarkably increase in p21 protein | Raptor phosphorylation on Ser792 (p-Raptor) (Raptor): increase in p-Raptor | activation of AMPK at 24 hours (AMPK; PC-3 and LNCaP cells, 25 µM, 24 hours vs 1 hour): also seen at 24 hours, being even more robust that at 1 hour of treatment | 8c-induced AMPK phosphorylation with AMPKα1 subunit knocked down (AMPK; siRNA AMPKα1, 25 μM, 1 h): almost totally blocked | AMPK and ACC phosphorylation with AMPKα2 subunit silenced (AMPK; siRNA AMPKα2, 25 μM, 1 h): still was able to phosphorylate AMPK and ACC at a similar level than in non-silenced (siC) cells
